The results in this text go back to a melting point compilation (Tetko et al.; mined from patent text by program, amines drawn as free bases though some values may be those of a salt).

For orientation: melting point means the temperature of the solid-liquid transition.

As for `COc1ccc2oc(C(=O)Nc3ccc(-c4ccc(S(=O)(=O)NC(C(=O)O)C(C)C)cc4)cc3)cc2c1` (centres undefined), the melting point is 257 to 259 °C. As for `COc1cc2nc(N3CCN(C(=O)C=Cc4ccc(Cl)c(Cl)c4)CC3)nc(N)c2cc1OC`, the figure is 196 to 198 °C; as for `CCOC(=O)c1cn(C2CC2)c2cc(-c3cc(C)nc(C)c3)c(F)cc2c1=O`, 198 to 200 °C.

`O=C(O)C(Sc1ccccc1)c1cc(Cl)cc(Cl)c1` (centres undefined): the melting point was 115 to 119 °C.

`O=C(Nc1cccc(C(F)(F)F)c1)NC1N=C(c2ccccc2F)c2ccccc2N(CC(=O)N2CC3CCC(CC3)C2)C1=O` (racemic) displayed a melting point of 226 to 227 °C. For `CC(C)(O)C1CCC(CNC(=O)c2cccnc2Oc2ccc(F)cc2)CC1` (centres undefined) the value was 78 to 80 °C; for `O=C1N(Cc2ccc(=O)[nH]c2)c2ccccc2C12COc1cc3c(cc12)OCO3` (centres undefined), 247 to 250 °C. `COc1ccc(N2CCCN(/C(C)=C(/C#N)C(N)=S)CC2)cn1` had a melting point of 159 to 161 °C. For `O=C1CCC(C(=O)O)(c2cccc3ccccc23)CC1` the value was 174 to 177 °C. `Cc1c(C(=O)Nc2ccc(N3CCC(N4CCOCC4)CC3)c(C(F)(F)F)c2)cnn1-c1ccc(Cl)cc1` registered a melting point of 193 to 194 °C. As for `FC(F)(F)c1ccc(-c2ncc(Br)cn2)cc1`, the figure is 167 °C. As for `COc1ccc(C#Cc2cc(Cl)cc3c2OC(C(F)(F)F)C(C(=O)O)=C3)cc1` (centres undefined), the figure is 218 to 219 °C; as for `O=C(Nc1cc(Cl)cc(Cl)c1)c1cc2ccccc2cc1O`, 254 to 255 °C. For `CC(C)(C)NC(=O)[C@@H]1C[C@@H]2CCCC[C@@H]2CN1C[C@@H](O)[C@@H](N)Cc1ccccc1`, the melting point lay in the range of 175 to 176 °C. Consider `CN1CCN(c2ccc(Nc3ncc4cc5ccccc5n4n3)cc2)CC1`, for which the melting point fell in the range of 217 to 222 °C. As for `CC(CCN(C)c1ccccc1)NCC(O)c1ccc(O)c(C(N)=O)c1` (centres undefined), the figure is 150 to 152 °C; as for `COC(COc1ccc2oc(C(=O)O)c(C)c2c1)OC`, 74 °C. As for `COCC(O)COc1ccc2cc(S(N)(=O)=O)sc2c1` (centres undefined), the figure is 128 to 129 °C.

Take `O=C(Nc1ccc2ccc(Cl)nc2n1)Oc1ccccc1`: the melting point turned out to be 208 °C. For `CC(C)N1CCN(C(=O)OC2C3=C(SCCS3)C(=O)N2c2ccc(Cl)cn2)CC1` (centres undefined) the value was 130 to 135 °C; for `CCC(=O)NC1=C(OCCOC)C(=O)c2ccccc2C1=O`, 116 to 117 °C. For `COCc1cccc(-c2c(Cl)ncn2-c2ccc(S(C)(=O)=O)cc2)c1` the value was 178 °C; for `CC(C)N(CCN(C(=O)N(C)C)c1cccc(N)n1)C(C)C`, 86 to 88 °C. For `CCCNC(=S)NC1=Nc2ccc(OC(F)(F)F)cc2SC1` the value was 180 to 182 °C.

With `CCN1CCN(C2c3c(C)c(N4CCN(c5ccc(OC)cc5)CC4)c(C)c(C)c3OC2(C)C)CC1` (centres undefined), the melting point fell in the range of 98 to 100 °C.

For the molecule `CCn1nc(-c2ccccc2)c(C(C)=O)c(Nc2cccc3cn[nH]c23)c1=O`, the melting point lay in the range of 263 to 264 °C. For `CCOC(=O)c1cc(OC(C)=O)c2c(OC)ccc(OC)c2c1` the value was 110 to 112 °C; for `Cc1ccc2nc(N3CC[C@@H](O)C3)ccc2c1NC(=O)CC1CCCCC1`, 248 to 249 °C; for `Cc1cc([N+](=O)[O-])cc(C)c1Oc1ccc(OCc2ccccc2)c(C(C)C)c1`, 99 to 100 °C. For `CC(C)(S)CNC(=O)COCC(=O)O` the value was 81 to 82 °C; for `Clc1cccc(Nc2ncnc3[nH]c(-c4ccccn4)cc23)c1`, > 300 °C; for `COc1ccc(C(=O)Nc2ccccc2)cc1NC(=S)Nc1ccc(S(N)(=O)=O)cc1`, 193 to 195 °C. For `CCc1cc2c(=O)n3cc(C(N)=O)ccc3nc2s1` the value was 278 to 280 °C; for `Cc1cn(COC(CO)CO)c(=O)[nH]c1=O`, 156 to 157 °C; for `Cc1oc(-c2ccccc2)nc1Cc1cc2cc(CCCC3OC(=O)NC3=O)ccc2o1` (centres undefined), 184 to 185 °C. The molecule `O=C/C=C/c1cccc(Cl)c1Cl` displayed a melting point of 94 to 95 °C. `CN(C)CC(=O)NCc1cccc(-c2cc3c(Nc4ccc(F)c(Cl)c4)ncnc3[nH]2)c1` gave a melting point of 272 to 273 °C.

As to `CNc1ccc2c(c1N)C(=O)OC21c2cc(F)c(O)cc2Oc2cc(O)c(F)cc21`, the melting point is 265 °C. For `CCn1c(=O)c2c(nc(C=Cc3cccc(OC)c3O)n2C)n(CC)c1=O` the value was 225 to 226 °C; for `Cc1ccc(S(=O)(=O)OCC2(C)Cc3cc(Cl)cc(OS(=O)(=O)C(F)(F)F)c3O2)cc1` (centres undefined), 100 to 102 °C; for `O=C(NC(=O)N(Sc1ccccc1[N+](=O)[O-])c1ccc(Cl)cc1)c1c(F)cccc1F`, 176 to 178 °C. For `O=C(N[C@@H](Cc1ccccc1)C(=O)O)OCC1c2ccccc2Oc2ccccc21` the value was 143 to 145 °C. For `CC(C)(C)OC(=O)Nc1cc2nc(-c3ccccc3)nn2cc1F` the value was 180 to 188 °C; for `CCc1nc(=O)[nH]c2sccc12`, 217 to 220 °C; for `COc1ccc(-c2c(C(=O)c3ccccc3)c(C)nc3cc(OC)c(OC)cc23)cc1OC`, 151 to 152 °C.

Turning to `COCCN(C1CC(C)(C)Oc2ccc(O)cc21)S(C)(=O)=O` (centres undefined), the melting point lay within 115 to 117 °C. For `O=C(O)CCN(C(=O)Cl)c1cccc(Cl)c1` the value was 106 °C. For `NCC(=O)NC(Cc1ccncc1)c1ccccc1` (centres undefined) the value was 145 to 147 °C; for `Oc1cncc(CCCOc2cccnc2Oc2cccc(Cl)c2)c1`, 148 to 149 °C; for `CN(C(=O)c1ccc2nonc2c1)C1CCN(C=O)CC1`, 163 to 165 °C.

`CC(C(=O)OCCO)n1c(-c2ccc(Cl)cc2)nc2cccnc21` (centres undefined): the melting point was in the range of 112 to 114 °C. As for `COP(C)(=O)C(O)[C@H](CC1CCCCC1)NC(=O)[C@H](CC(C)C)NC(=O)CCc1ccccc1` (some centres undefined), the figure is 165 to 170 °C. As for `N#Cc1cccc(C2=Nc3cc(CO)c(C#Cc4ccccc4)cc3NC(=O)C2)c1`, the figure is > 255 °C. For `O=C1CCCc2sc(CCN3CCC(c4coc5cc(F)ccc45)CC3)cc2N1` the value was 176 to 178 °C.

The molecule `CN(C)OC(=O)c1c(O)cccc1Cl` had a melting point of 104 to 106 °C. For `CCOC(=O)c1nnc2c3ccc(Cl)cc3c(-c3ccccc3)nn12` the value was 266 to 268 °C. For `Cn1nnc(CC[C@H]2CC[C@@H](c3ccc(F)cc3)N2S(=O)(=O)c2ccc(Cl)cc2)n1` (racemic) the value was 122 °C.

The molecule `COc1cc(OC)c2c(=O)[nH]c(-c3ccc(CN4CCOCC4)cc3)nc2c1` registered a melting point of 206 to 208 °C. As for `CCc1c(O)cccc1O`, the figure is 58 to 59 °C; as for `O=C1COc2ccc(C3=Cc4cc(F)ccc4SC3)cc2N1`, 229 to 234 °C; as for `[N-]=[N+]=Nc1ccc(C(=O)OCCOC(=O)C[C@@H](C(=O)O)n2c3ccccc3c3ccccc32)cc1`, 55 °C. For `COC(CO)(OC)C1(c2ccc(Cl)cc2)CCC1` the value was 73 to 74 °C. For `COC(=O)c1cccc(CN2C(=O)C3(COc4cc5c(cc43)OCCO5)c3ccccc32)c1` (centres undefined) the value was 89 to 97 °C; for `Cn1cnc2nc(-c3ccc(Cl)cc3)nn2c1=S`, 283 to 285 °C. For `Cc1ccc(CO)cc1NC(=O)CC12CC3CC(CC(C3)C1)C2`, the melting point stood at 190 °C. For `C=Cc1cc(Br)c(Br)cc1Br` the value was 64 °C; for `CCOC(=O)c1c(C(C)C)nc2c(c(C)nn2C)c1-c1ccc(F)cc1`, 68 to 71 °C.

In turn, `CCn1cc(C(=O)O)c(=O)c2cc(F)c(N3C[C@@H](N)[C@@H](C)C3)c(F)c21` (relative stereo) gave a melting point of 232 to 234 °C. For `c1ccc2c(c1)CCN(Cc1nc3ccccc3[nH]1)C2` the value was 184 to 186 °C; for `CCOC(=O)C=Cc1cccc(N)c1`, 84 to 85 °C. For `O=CCOc1ccc(CCC(=O)O)cc1` the value was 95 to 100 °C; for `NC(=S)c1sc(-c2ccccc2)nc1N`, 164 to 167 °C; for `COc1ccc(CNc2nc(OCc3ccccn3)ncc2C(=O)c2cc(OC)c(OC)c(OC)c2)cc1NC(C)=O`, 194 to 196 °C. For `Cc1nnc(CO)n1-c1ccc(Cl)cc1C(=O)c1ccccc1Cl` the value was 194 to 195 °C; for `COc1ncnc(OC)c1N`, 94 to 96 °C; for `COCc1ccc(Oc2cc(OC(C)C)c3[nH]c(C4=NCC(CC(=O)NC5CC5)S4)cc3c2)cn1` (centres undefined), 100 to 101 °C.

`Cc1c(-c2cccnc2)n(CCCCc2nnn[nH]2)c2ccccc12` registered a melting point of 177 to 179 °C. As for `Clc1ccc(C(Cl)Cl)cn1`, the figure is 60 °C.

Turning to `CSc1nn2c(O)cc(CN3CCN(C)CC3)nc2c1S(=O)(=O)c1ccccc1`, the melting point was > 220 °C. `CON=C1C=CC=CC1CC(=O)OC` (centres undefined) displayed a melting point of 96 to 97 °C.

For the molecule `Clc1ccc(-c2cc3ccccc3s2)cc1`, the melting point was 193 to 194 °C. As for `COCCOc1ccc2[nH]c(=O)n(C3CCCCC3)c2c1`, the figure is 182 °C. As for `CNCC1Oc2cc(F)cc(-c3ccccc3Cl)c2O1` (centres undefined), the figure is 132 to 134 °C; as for `O=C1CCC2N1CC(=O)N2c1ccccc1` (centres undefined), 185 to 188 °C; as for `COc1ccc(-c2[nH]c3ccc(OCc4ccccc4)cc3c2C)cc1`, 158 °C. As for `O=C1C2CC(F)CCN2C(=O)N1c1ncc(Cl)cc1F` (centres undefined), the figure is 154 to 157 °C.

For `Cc1cc(CCCCCCCOc2ccc(C(=O)OC(C)C)cc2)on1`, the melting point is 45 to 46 °C. For `CCOc1ccc2c(c1)n(C1CCCCC1)c(=O)n2S(=O)(=O)c1ccc(C(=O)NC(C)(C)CN(C)C)cc1OC` the value was 161 °C; for `N#Cc1ccc(N(Cc2ccc(OCc3ccccc3)cc2)n2cnnc2)cc1-c1ccoc1`, 155 to 156 °C.
